Measurements published in US11427548B2 (Arvinas Operations, Inc., priority 2015, dated 2022).
Where two headings read alike, the source gives them in different places.

Columns and labels:
Assay type in all cases: cell-based
VCaP cells = experiment: VCaP cell proliferation assay (Cell Titer Glo), GI50; conditions: Homo sapiens, VCaP cells, 0.1 nM R1881, read-out: GI50, Inhibition of VCaP Proliferation
Procedure: 2. VCaP Cell Proliferation Assay.
VCaP cells are plated 7,500/well 200 μL/well in VCaP assay medium [Phenol red free RPMI (Gibco Cat #11835-030); 5% Charcoal Stripped (Dextran treated) FBS (Omega Scientific, Cat #FB-04); Pen/Strep Life Technologies (Gibco Cat #: 10378-016); 0.1 nM R1881 (Sigma, Cat #R0908) is added upon the start of the assay, not during initial plating of the cells).
The assay was performed as follows: the cells are grown for a minimum of 3 days to deplete androgens; dosing of PROTACs and R1881 is performed as for AR ELISA; the baseline reading of Cell Titer Glo can be performed on day of dosing.
VCaP cells with 0.1 nM R1881 will double once in 4 days. Gently draw off 110 μL of media so as not to disturb the adherent cells; add 110 μL of CTG; incubate with slow shaking for 20 minutes; and read luminescence on a plate reader.

Androgen Receptor [1] = target: T1, Androgen Receptor (Homo sapiens, UniProt P10275); experiment: Androgen Receptor ELISA assay (PathScan AR ELISA) in VCaP cells: AR degradation, Dmax and DC50
T1 construct: endogenous in cells; host or cells: VCaP cells
T1 sequence (P10275 1-920): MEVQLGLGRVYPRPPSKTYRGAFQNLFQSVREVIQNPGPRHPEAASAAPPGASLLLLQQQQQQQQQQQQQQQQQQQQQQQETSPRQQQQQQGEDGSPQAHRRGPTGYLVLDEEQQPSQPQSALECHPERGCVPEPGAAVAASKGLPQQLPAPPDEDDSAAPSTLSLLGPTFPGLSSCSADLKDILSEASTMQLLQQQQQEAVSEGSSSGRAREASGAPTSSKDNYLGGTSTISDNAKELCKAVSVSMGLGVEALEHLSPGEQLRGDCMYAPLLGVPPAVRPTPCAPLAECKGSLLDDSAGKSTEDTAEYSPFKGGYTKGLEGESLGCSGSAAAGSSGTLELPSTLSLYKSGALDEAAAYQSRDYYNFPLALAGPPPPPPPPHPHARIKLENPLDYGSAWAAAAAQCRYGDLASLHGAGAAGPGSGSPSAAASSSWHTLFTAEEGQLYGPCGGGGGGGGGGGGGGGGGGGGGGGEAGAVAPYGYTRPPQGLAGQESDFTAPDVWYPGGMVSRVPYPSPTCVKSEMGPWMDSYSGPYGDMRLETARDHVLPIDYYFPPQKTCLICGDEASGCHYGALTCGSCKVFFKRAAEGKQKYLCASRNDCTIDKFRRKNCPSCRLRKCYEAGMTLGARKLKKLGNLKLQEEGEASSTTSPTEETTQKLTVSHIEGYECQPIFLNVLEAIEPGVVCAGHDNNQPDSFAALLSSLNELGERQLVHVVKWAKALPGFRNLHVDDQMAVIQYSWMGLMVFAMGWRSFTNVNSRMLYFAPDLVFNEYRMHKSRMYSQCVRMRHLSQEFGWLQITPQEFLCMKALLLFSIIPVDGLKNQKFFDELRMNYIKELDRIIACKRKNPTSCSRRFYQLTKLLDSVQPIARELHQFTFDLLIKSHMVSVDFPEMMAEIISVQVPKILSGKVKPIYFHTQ
Summary of the method: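 After 24 h exposure of VCaP cells (charcoal-stripped serum, 0.1 nM R1881 agonist, 0.1% DMSO) to seven half-log compound concentrations, residual AR in lysates was measured by PathScan ELISA (TMB absorbance, 450 nm). Cells were plated at 30,000/well and grown at least 3 days beforehand.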

Androgen Receptor [2] = target: T2, Androgen Receptor (Homo sapiens, UniProt P10275+P40337, T878A); experiment: Androgen Receptor ELISA assay (PathScan AR ELISA) in LNCaP cells: AR degradation, Dmax and DC50; conditions: for DC50: concentration that caused 50% Androgen Receptor degradation; for Dmax: highest percentage of Androgen Receptor degradation
T2 construct: Compounds have been evaluated in this assay in LNCaP and/or VCaP cells utilizing similar protocols; endogenous in cells; host or cells: LNCaP cells

[3] = VCaP, highest percentage of Androgen Receptor degradation observed, VCaP cells (Table 32); read-out: VCaP Dmax (%)
[4] = concentration that caused 50% Androgen Receptor degradation, VCaP cells (Table 32); read-out: VCaP DC50
[5] = read-out: VCaP DC50; VCaP cells; concentration that caused 50% Androgen Receptor degradation

T2 sequence (P10275 whole entry T878A): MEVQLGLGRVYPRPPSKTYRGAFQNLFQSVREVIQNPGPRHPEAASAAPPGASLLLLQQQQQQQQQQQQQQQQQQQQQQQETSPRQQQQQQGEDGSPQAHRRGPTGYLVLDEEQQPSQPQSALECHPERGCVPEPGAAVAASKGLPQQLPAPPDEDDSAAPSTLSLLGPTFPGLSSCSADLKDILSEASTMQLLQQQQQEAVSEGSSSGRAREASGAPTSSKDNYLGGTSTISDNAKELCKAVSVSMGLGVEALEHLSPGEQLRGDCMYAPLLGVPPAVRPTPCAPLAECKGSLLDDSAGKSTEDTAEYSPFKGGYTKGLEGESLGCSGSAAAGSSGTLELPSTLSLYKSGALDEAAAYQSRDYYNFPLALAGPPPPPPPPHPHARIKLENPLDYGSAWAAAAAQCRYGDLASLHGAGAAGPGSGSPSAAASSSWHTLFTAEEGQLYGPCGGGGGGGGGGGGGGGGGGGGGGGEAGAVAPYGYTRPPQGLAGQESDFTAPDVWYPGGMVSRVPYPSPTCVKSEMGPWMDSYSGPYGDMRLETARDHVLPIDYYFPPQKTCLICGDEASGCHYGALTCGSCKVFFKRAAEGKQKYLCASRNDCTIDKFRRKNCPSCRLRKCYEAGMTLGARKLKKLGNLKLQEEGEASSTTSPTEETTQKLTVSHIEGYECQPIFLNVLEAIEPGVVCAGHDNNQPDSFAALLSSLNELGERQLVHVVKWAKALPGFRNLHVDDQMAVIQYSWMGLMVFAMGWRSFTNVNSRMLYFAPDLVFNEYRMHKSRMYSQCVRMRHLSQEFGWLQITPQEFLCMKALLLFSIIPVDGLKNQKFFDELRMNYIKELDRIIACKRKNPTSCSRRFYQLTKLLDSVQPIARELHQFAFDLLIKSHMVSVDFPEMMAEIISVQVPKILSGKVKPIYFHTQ
T2 sequence (P40337 whole entry): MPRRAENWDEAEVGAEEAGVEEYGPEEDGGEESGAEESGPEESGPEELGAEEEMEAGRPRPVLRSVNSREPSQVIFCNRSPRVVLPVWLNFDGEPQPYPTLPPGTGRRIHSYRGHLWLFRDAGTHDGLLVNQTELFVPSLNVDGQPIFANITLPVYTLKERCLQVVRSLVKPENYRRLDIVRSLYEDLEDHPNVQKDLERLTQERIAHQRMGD
T2 sequence (Q15369 whole entry partner): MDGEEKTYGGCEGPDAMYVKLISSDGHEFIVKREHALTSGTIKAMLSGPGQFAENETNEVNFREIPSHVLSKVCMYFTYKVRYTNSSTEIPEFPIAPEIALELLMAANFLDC
T2 sequence (Q15370 whole entry partner): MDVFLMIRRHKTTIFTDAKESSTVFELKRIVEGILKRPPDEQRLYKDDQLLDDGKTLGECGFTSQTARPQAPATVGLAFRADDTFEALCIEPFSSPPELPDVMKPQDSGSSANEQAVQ

With CC1(C)[C@H](N)C(C)(C)[C@H]1Oc1ccc(C#N)c(Cl)c1 [ABM-26] the GI50 (VCaP cells; Table 38 (ABM)) was 51 to 250 nM.
CC1(C)[C@H](N)C(C)(C)[C@@H]1Oc1ccc(C#N)c(Cl)c1 [ABM-27] was tested, and the GI50 (VCaP cells; Table 38 (ABM)) was at least 251 nM.
For CC(C)(C)OC(=O)N[C@H]1C(C)(C)[C@H](Oc2ccc(C#N)c(Cl)c2)C1(C)C [ABM-29], the GI50 (VCaP cells; Table 38 (ABM)) was 51 to 250 nM.
Compound CC1(C)[C@H](NC(=O)c2ccc(N)cc2)C(C)(C)[C@H]1Oc1ccc(C#N)c(Cl)c1 [ABM-30] has a GI50 (VCaP cells; Table 38 (ABM)) of at most 50 nM.
CC1(C)[C@H](NC(=O)c2cnc(N)cn2)C(C)(C)[C@H]1Oc1ccc(C#N)c(Cl)c1 [ABM-31] was tested, and the GI50 (VCaP cells; Table 38 (ABM)) was 51 to 250 nM.
For COc1ccc(C(=O)N[C@H]2C(C)(C)[C@H](Oc3ccc(C#N)c(Cl)c3)C2(C)C)cc1 [ABM-33], the GI50 (VCaP cells; Table 38 (ABM)) was 51 to 250 nM.
CC1(C)[C@H](NC(=O)c2cnn(CCO)c2)C(C)(C)[C@H]1Oc1ccc(C#N)c(Cl)c1 [ABM-34] was tested, and the GI50 (VCaP cells; Table 38 (ABM)) was at least 251 nM.
Compound CC1(C)[C@H](NC(=O)c2ccc(NCCCCCO)cc2)C(C)(C)[C@H]1Oc1ccc(C#N)c(Cl)c1 [ABM-36] has a GI50 (VCaP cells; Table 38 (ABM)) of at most 50 nM.
Work on CC(C)(C)OC(=O)COCCCCCNc1ccc(C(=O)N[C@H]2C(C)(C)[C@H](Oc3ccc(C#N)c(Cl)c3)C2(C)C)cc1 [ABM-37] yielded a GI50 (VCaP cells; Table 38 (ABM)) of at most 50 nM.
Cc1ncsc1-c1ccc(CNC(=O)[C@@H]2C[C@@H](O)CN2C(=O)[C@@H](NC(=O)COC[C@@H](O)CCOc2ccc(-c3ccc(N4C(=S)N(c5ccc(C#N)c(C(F)(F)F)c5)C(=O)C4(C)C)cc3)cc2)C(C)(C)C)cc1 [Example 131, (2S,4R)-1-[(2S)-2-{2-[(2S)-4-[4-(4-{3-[4-cyano-3-(trifluoromethyl)phenyl]-5,5-dimethyl-4-oxo-2-sulfanylideneimidazolidin-1-yl}phenyl)phenoxy]-2-hydroxybutoxy]acetamido}-3,3-dimethylbutanoyl]-4-hydroxy-N-{[4-(4-methyl-1,3-thiazol-5-yl)phenyl]methyl}pyrrolidine-2-carboxamide] was tested, and the Dmax (Androgen Receptor [1]; VCaP, read-out: VCaP Dmax (%)) was over 71% and the GI50 (VCaP cells; Table 37) was 51 to 250 nM.
With Cc1cc(-c2ccc(N3C(=S)N(c4ccc(C#N)c(C(F)(F)F)c4)C(=O)C3(C)C)cc2)ccc1OCCCCOCC(=O)N[C@H](C(=O)N1C[C@H](O)C[C@H]1C(=O)NCc1ccc(-c2scnc2C)cc1)C(C)(C)C [Example 134, (2S,4R)-1-[(2S)-2-(2-{4-[4-(4-{3-[4-cyano-3-(trifluoromethyl)phenyl]-5,5-dimethyl-4-oxo-2-sulfanylideneimidazolidin-1-yl}phenyl)-2-methylphenoxy]butoxy}acetamido)-3,3-dimethylbutanoyl]-4-hydroxy-N-{[4-(4-methyl-1,3-thiazol-5-yl)phenyl]methyl}pyrrolidine-2-carboxamide] the Dmax (Androgen Receptor [1]; VCaP, read-out: VCaP Dmax (%)) was over 71%, the DC50 (Androgen Receptor [1]; read-out: VCaP DC50; concentration that caused 50% Androgen Receptor degradation, VCaP cells (Table 32)) was under 50 nM and the GI50 (VCaP cells; Table 37) was 51 to 250 nM.
In the case of Cc1ncoc1-c1ccc([C@H](C)NC(=O)[C@@H]2C[C@@H](O)CN2C(=O)[C@@H](NC(=O)COCCCCCOc2ccc(C(=O)N[C@H]3C(C)(C)[C@H](Oc4ccc(C#N)c(Cl)c4)C3(C)C)cc2)C(C)(C)C)cc1 [Example 156, (2S,4R)-1-[(2S)-3,3-dimethyl-2-(2-{[5-(4-{[trans--3-(3-chloro-4-cyanophenoxy)-2,2,4,4-tetramethylcyclobutyl]carbamoyl]phen-oxy)pentyl]oxy}acetamido)butanoyl]-4-hydroxy-N-[(1S)-1-[4-(4-methyl-1,3-oxazol-5-yl)phenyl]ethyl]pyrrolidine-2-carboxamide], the Dmax (Androgen Receptor [1]; [3]) is reported as over 71%, the DC50 (Androgen Receptor [1]; [4]) is reported as under 50 nM and the GI50 (VCaP cells; Table 37) is reported as at most 50 nM.
With Cc1ncsc1-c1ccc([C@H](C)NC(=O)[C@@H]2C[C@@H](O)CN2C(=O)[C@@H](NC(=O)COCCCCCOc2ccc(C(=O)N[C@H]3C(C)(C)[C@H](Oc4ccc(C#N)c(Cl)c4)C3(C)C)cc2)C(C)(C)C)cc1 [Example 157, (2S,4R)-1-[(2S)-3,3-dimethyl-2-(2-{[5-(4-{[trans-3-(3-chloro-4-cyanophenoxy)-2,2,4,4-tetramethylcyclobutyl]carbamoyl}phen-oxy)pentyl]oxy}acetamido)butanoyl]-4-hydroxy-N-[(1S)-1-[4-(4-methyl-1,3-thiazol-5-yl)phenyl]ethyl]pyrrolidine-2-carboxamide] the Dmax (Androgen Receptor [1]; [3]) was over 71% and the GI50 (VCaP cells; Table 37) was at most 50 nM.
CC(C)(C)[C@H](NC(=O)COCCCCOc1ccc(C(=O)N[C@H]2C(C)(C)[C@H](Oc3ccc(C#N)c(Cl)c3)C2(C)C)cc1)C(=O)N1C[C@H](O)C[C@H]1C(=O)NCc1ccc(Cl)cc1 [Example 169, (2S,4R)-N-[(4-chlorophenyl)methyl]-1-[(2S)-3,3-dimethyl-2-{2-[4-(4-{[trans-3-(3-chloro-4-cyanophenoxy)-2,2,4,4-tetramethylcyclobutyl]carbamoyl}phenoxy)butoxy]acetamido}butanoyl]-4-hydroxypyrrolidine-2-carboxamide] was tested, and the Dmax (Androgen Receptor [1]; [3]) was 51 to 70%, the DC50 (Androgen Receptor [1]; [4]) was under 50 nM and the GI50 (VCaP cells; Table 37) was 51 to 250 nM.
Work on CC(C)(C)[C@H](NC(=O)COCCCCOc1ccc(C(=O)N[C@H]2C(C)(C)[C@H](Oc3ccc(C#N)c(Cl)c3)C2(C)C)cc1)C(=O)N1C[C@H](O)C[C@H]1C(=O)NCc1ccc(C#N)cc1 [Example 170, (2S,4R)-N-[(4-cyanophenyl)methyl]-1-[(2S)-3,3-dimethyl-2-{2-[4-(4-{[trans-3-(3-chloro-4-cyanophenoxy)-2,2,4,4-tetramethylcyclobutyl]carbamoyl}phenoxy)butoxy]acetamido}butanoyl]-4-hydroxypyrrolidine-2-carboxamide] yielded a Dmax (Androgen Receptor [1]; [3]) of over 71%, a DC50 (Androgen Receptor [1]; [4]) of under 50 nM and a GI50 (VCaP cells; Table 37) of at most 50 nM.
Cc1ncsc1-c1ccc(CNC(=O)[C@@H]2C[C@@H](O)CN2C(=O)[C@@H](NC(=O)COCCCCCNc2ccc(C(=O)N[C@H]3C(C)(C)[C@H](Oc4ccc(C#N)c(Cl)c4)C3(C)C)cc2)C(C)(C)C)cc1 [Example 172, (2S,4R)-1-[(2S)-3,3-dimethyl-2-[2-({5-[(4-{[trans-3-(3-chloro-4-cyanophenoxy)-2,2,4,4-tetramethylcyclobutyl]carbamoyl}phenyl)amino]pentyl}oxy)acetamido]butanoyl]-4-hydroxy-N-{[4-(4-methyl-1,3-thiazol-5-yl)phenyl]methyl}pyrrolidine-2-carboxamide] was tested, and the Dmax (Androgen Receptor [1]; [3]) was over 71% and the GI50 (VCaP cells; Table 37) was at most 50 nM.
Compound Cc1ncsc1-c1ccc(CNC(=O)[C@@H]2C[C@@H](O)CN2C(=O)[C@@H](NC(=O)COCCCOCCCCOc2ccc(CN3C(=S)N(c4ccc(C#N)c(C(F)(F)F)c4)C(=O)C3(C)C)cc2)C(C)(C)C)cc1 [Example 308] has a Dmax (Androgen Receptor [1]; VCaP, read-out: VCaP Dmax (%)) of 51 to 70%, a DC50 (Androgen Receptor [1]; [5]) of under 50 nM and a DC50 (Androgen Receptor [2]) of 51 to 500 nM. It also gave a Dmax (Androgen Receptor [2]) of 51 to 70%.
For Cc1ncsc1-c1ccc(CNC(=O)[C@@H]2C[C@@H](O)CN2C(=O)[C@@H](NC(=O)CCCOCCN2CCC(c3ccc(N4C(=S)N(c5ccc(C#N)c(C(F)(F)F)c5)C(=O)C4(C)C)cc3)CC2)C(C)(C)C)cc1 [Example 309], the Dmax (Androgen Receptor [1]; VCaP, read-out: VCaP Dmax (%)) was 26 to 50%, the DC50 (Androgen Receptor [1]; [5]) was under 50 nM and the DC50 (Androgen Receptor [2]) was over 501 nM. It also gave a Dmax (Androgen Receptor [2]) of 26 to 50%.
Cc1ncsc1-c1ccc(CNC(=O)[C@@H]2C[C@@H](O)CN2C(=O)[C@@H](NC(=O)C(C)(C)C(O)CCCOCCCCCOc2ccc(N3C(=S)N(c4ccc(C#N)c(C(F)(F)F)c4)C(=O)C3(C)C)cc2)C(C)(C)C)cc1 (some centres unmarked) [Example 310] showed a Dmax (Androgen Receptor [1]; VCaP, read-out: VCaP Dmax (%)) of under 25%, a DC50 (Androgen Receptor [2]) of over 501 nM and a Dmax (Androgen Receptor [2]) of 26 to 50%.
